Data reported in ChEMBL document CHEMBL1201862, “PubChem BioAssay data set” (2004).
The source made the active and inactive calls. Rule as the data show it: actives have a measured IC50 and inactives only a lower limit.

Target: Envelope glycoprotein gp160 (Human immunodeficiency virus 1, UniProt Q6QLK5)
Assay: inhibitors of HIV fusion peptide binding, primary screen, biochemical, uHTS, fluorescence dequenching (AID 1986)

Sequence of Envelope glycoprotein gp160 (Q6QLK5 whole entry, the tested form may be a part): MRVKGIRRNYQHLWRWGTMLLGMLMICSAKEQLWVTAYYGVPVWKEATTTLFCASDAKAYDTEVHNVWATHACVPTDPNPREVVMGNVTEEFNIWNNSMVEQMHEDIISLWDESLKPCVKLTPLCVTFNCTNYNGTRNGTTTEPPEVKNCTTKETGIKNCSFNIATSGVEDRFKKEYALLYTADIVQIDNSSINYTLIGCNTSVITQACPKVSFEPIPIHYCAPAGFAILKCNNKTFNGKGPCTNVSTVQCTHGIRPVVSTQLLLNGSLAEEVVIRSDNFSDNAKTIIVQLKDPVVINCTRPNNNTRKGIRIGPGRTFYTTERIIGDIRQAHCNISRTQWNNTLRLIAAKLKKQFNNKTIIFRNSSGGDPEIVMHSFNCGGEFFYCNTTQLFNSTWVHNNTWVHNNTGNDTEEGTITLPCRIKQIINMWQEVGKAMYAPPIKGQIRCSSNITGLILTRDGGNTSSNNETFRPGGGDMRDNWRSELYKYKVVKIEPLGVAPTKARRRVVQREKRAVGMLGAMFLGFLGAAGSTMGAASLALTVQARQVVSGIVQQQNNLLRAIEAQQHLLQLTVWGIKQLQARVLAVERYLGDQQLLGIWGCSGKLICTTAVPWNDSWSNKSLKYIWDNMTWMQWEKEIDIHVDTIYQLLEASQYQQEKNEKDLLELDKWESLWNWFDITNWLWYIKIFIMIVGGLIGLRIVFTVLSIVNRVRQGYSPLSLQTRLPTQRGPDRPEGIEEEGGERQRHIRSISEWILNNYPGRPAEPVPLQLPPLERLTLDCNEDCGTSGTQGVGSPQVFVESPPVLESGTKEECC

Row | Structure (SMILES) | IC50
1 | CCCOc1ccc(C2C(C(=O)c3cc4ccccc4o3)=C(O)C(=O)N2c2cc(C)on2)cc1 (configuration not stated) | 16.5 µM (active)
2 | COc1ccc(/C=N/NC(=O)c2[nH]c3ccc(Br)cc3c2-c2ccccc2)c(C(=O)O)c1OC | 19.4 µM (active)
